Reference: patent publication US20200024278A1, “COMPOSITION COMPRISING ANTIBIOTIC COMPOUND AND AN HETEROCYCLIC COMPOUND AND THEIR USE IN PREVENTING OR TREATING BACTERIAL INFECTIONS” (MUTABILIS, priority 2016, published 2020)
Like-named read-outs stand apart in the source and are kept apart here.

What was measured:
Test in all cases: MIC, broth microdilution (CLSI), substance alone or ATB combined with compound at 4 or 8 μg/mL
ECO UFR39 = format: cell-based, E. coli; conditions: for MIC: Escherichia coli
Summary of the method: (§1)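 Each strain received 5·10^5 CFU/mL of log-phase cells in ca-MHB over DMSO-spotted compound or compound-antibiotic combinations. After 16-20 h at 35° C, growth was scored visually.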

ECL P99 = format: cell-based, E. cloacae; conditions: for MIC: Enterobacter cloacae
Summary of the method: as §1

PAE 105250 = format: cell-based, P. aeruginosa; conditions: PAE 105250
Summary of the method: as §1

PAE UFR90 = format: cell-based, P. aeruginosa; conditions: PAE UFR90
Summary of the method: as §1

PAE UFR48 = format: cell-based, P. aeruginosa; conditions: PAE UFR48
Summary of the method: as §1

SPN 49619 = format: cell-based, S. pneumoniae; conditions: SPN 49619
Summary of the method: as §1

[1] = Pseudomonas aeruginosa, antibiotic alone, read-out: MIC ATB alone

`C=CC1=C(C(=O)O)N2C(=O)[C@@H](NC(=O)/C(=N\OCC(=O)O)c3csc(N)n3)[C@H]2SC1` [FIX, Cefixime, reference compound] was tested. Which “MIC ATB combined with Example 11 @8 μg/ml” value (ECO UFR39; ECO UFR39, with Example 11 at 8 μg/ml) did it give?
The value was under 0.031 µg/mL.

And the “MIC ATB combined with Example 12 @8 μg/ml” value (ECO UFR39; ECO UFR39, with Example 12 at 8 μg/ml)?
The value was under 0.031 µg/mL.

What about the “MIC ATB combined with Example 13 @8 μg/ml” value (ECO UFR39; ECO UFR39, with Example 13 at 8 μg/ml) of the same compound?
The value was under 0.031 µg/mL.

And the “MIC ATB combined with Example 14 @8 μg/ml” value (ECO UFR39; ECO UFR39, with Example 14 at 8 μg/ml)?
Its value is under 0.031 µg/mL.

And the “MIC ATB combined with Example 15 @4 μgml” value (ECO UFR39; ECO UFR39, with Example 15 at 4 μg/ml)?
Its value is under 0.031 µg/mL.

What about the “MIC ATB combined with Example 16 @4 μg/ml” value (ECO UFR39; ECO UFR39, with Example 16 at 4 μg/ml) of the same compound?
The value was under 0.031 µg/mL.

And the MIC (ECO UFR39)?
Its MIC is over 128 µg/mL.

And the MIC (ECO UFR39; ECO UFR39, antibiotic alone, read-out: MIC ATB alone)?
Its MIC is over 512 µg/mL.

And the “MIC ATB combined with Example 1 @8 μg/ml” value (ECL P99; ECL P99, with Example 1 @8 μg/ml)?
The value was 0.063 µg/mL.

And the “MIC ATB combined with Example 1 @8 μg/ml” value (ECL P99; ECL P99, with Example 1 at 8 μg/ml)?
Its value is 0.063 µg/mL.

What about the “MIC ATB combined with Example 7 @8 μgml” value (ECL P99; ECL P99, with Example 7 at 8 μg/ml) of the same compound?
Its value is 16 µg/mL.

What about the “MIC ATB combined with Example 9 @4 μg/ml” value (ECL P99; ECL P99, with Example 9 @4 μg/ml) of the same compound?
Its value is under 0.031 µg/mL.

And the “MIC ATB combined with Example 9 @4 μg/ml” value (ECL P99; ECL P99, with Example 9 at 4 μg/ml)?
Its value is under 0.031 µg/mL.

What about the “MIC ATB combined with Example 11 @8 μg/ml” value (ECL P99; ECL P99, with Example 11 at 8 μg/ml) of the same compound?
Its value is under 0.031 µg/mL.

What about the “MIC ATB combined with Example 12 @8 μg/ml” value (ECL P99; ECL P99, with Example 12 at 8 μg/ml) of the same compound?
The value was under 0.031 µg/mL.

And the “MIC ATB combined with Example 13 @8 μg/ml” value (ECL P99; ECL P99, with Example 13 at 8 μg/ml)?
Its value is 8 µg/mL.

What about the “MIC ATB combined with Example 14 @8 μg/ml” value (ECL P99; ECL P99, with Example 14 at 8 μg/ml) of the same compound?
The value was under 0.031 µg/mL.

What about the “MIC ATB combined with Example 15 @4 μgml” value (ECL P99; ECL P99, with Example 15 at 4 μg/ml) of the same compound?
The value was under 0.031 µg/mL.

What about the “MIC ATB combined with Example 16 @4 μg/ml” value (ECL P99; ECL P99, with Example 16 at 4 μg/ml) of the same compound?
The value was under 0.031 µg/mL.

And the MIC (ECL P99)?
Its MIC is over 128 µg/mL.

And the MIC (ECL P99; ECL P99, antibiotic alone, read-out: MIC ATB alone)?
The MIC was over 512 µg/mL.

And the “MIC ATB combined with Example 1 @8 μg/ml” value (PAE 105250; with Example 1 @8 μg/ml)?
Its value is under 0.031 µg/mL.

And the “MIC ATB combined with Example 1 @8 μg/ml” value (PAE 105250; with Example 1 at 8 μg/ml)?
The value was under 0.031 µg/mL.

What about the “MIC ATB combined with Example 7 @8 μgml” value (PAE 105250; with Example 7 at 8 μg/ml) of the same compound?
Its value is over 32 µg/mL.

And the “MIC ATB combined with Example 9 @4 μg/ml” value (PAE 105250; with Example 9 @4 μg/ml)?
Its value is over 32 µg/mL.

And the “MIC ATB combined with Example 9 @4 μg/ml” value (PAE 105250; with Example 9 at 4 μg/ml)?
Its value is over 32 µg/mL.

And the “MIC ATB combined with Example 11 @8 μg/ml” value (PAE 105250; with Example 11 at 8 μg/ml)?
The value was over 32 µg/mL.

What about the “MIC ATB combined with Example 12 @8 μg/ml” value (PAE 105250; with Example 12 at 8 μg/ml) of the same compound?
The value was over 32 µg/mL.

What about the “MIC ATB combined with Example 13 @8 μg/ml” value (PAE 105250; with Example 13 at 8 μg/ml) of the same compound?
The value was over 32 µg/mL.

What about the “MIC ATB combined with Example 14 @8 μg/ml” value (PAE 105250; with Example 14 at 8 μg/ml) of the same compound?
Its value is over 32 µg/mL.

And the “MIC ATB combined with Example 15 @4 μgml” value (PAE 105250; with Example 15 at 4 μg/ml)?
Its value is over 32 µg/mL.

And the “MIC ATB combined with Example 16 @4 μg/ml” value (PAE 105250; with Example 16 at 4 μg/ml)?
The value was over 32 µg/mL.

What about the MIC (PAE 105250; [1]) of the same compound?
Its MIC is over 512 µg/mL.

What about the “MIC ATB combined with Example 1 @8 μg/ml” value (PAE UFR90; with Example 1 @8 μg/ml) of the same compound?
Its value is under 0.031 µg/mL.

And the “MIC ATB combined with Example 1 @8 μg/ml” value (PAE UFR90; with Example 1 at 8 μg/ml)?
The value was under 0.031 µg/mL.

And the “MIC ATB combined with Example 7 @8 μgml” value (PAE UFR90; with Example 7 at 8 μg/ml)?
Its value is over 32 µg/mL.

What about the “MIC ATB combined with Example 9 @4 μg/ml” value (PAE UFR90; with Example 9 @4 μg/ml) of the same compound?
The value was over 32 µg/mL.

And the “MIC ATB combined with Example 9 @4 μg/ml” value (PAE UFR90; with Example 9 at 4 μg/ml)?
The value was over 32 µg/mL.

And the “MIC ATB combined with Example 11 @8 μg/ml” value (PAE UFR90; with Example 11 at 8 μg/ml)?
Its value is over 32 µg/mL.

What about the “MIC ATB combined with Example 12 @8 μg/ml” value (PAE UFR90; with Example 12 at 8 μg/ml) of the same compound?
The value was over 32 µg/mL.

What about the “MIC ATB combined with Example 13 @8 μg/ml” value (PAE UFR90; with Example 13 at 8 μg/ml) of the same compound?
Its value is over 32 µg/mL.

And the “MIC ATB combined with Example 14 @8 μg/ml” value (PAE UFR90; with Example 14 at 8 μg/ml)?
Its value is over 32 µg/mL.

What about the “MIC ATB combined with Example 15 @4 μgml” value (PAE UFR90; with Example 15 at 4 μg/ml) of the same compound?
Its value is over 32 µg/mL.

What about the “MIC ATB combined with Example 16 @4 μg/ml” value (PAE UFR90; with Example 16 at 4 μg/ml) of the same compound?
Its value is over 32 µg/mL.

And the MIC (PAE UFR90; [1])?
Its MIC is over 32 µg/mL.

And the “MIC ATB combined with Example 1 @8 μg/ml” value (PAE UFR48; with Example 1 @8 μg/ml)?
Its value is under 0.031 µg/mL.

And the “MIC ATB combined with Example 1 @8 μg/ml” value (PAE UFR48; with Example 1 at 8 μg/ml)?
The value was under 0.031 µg/mL.

And the “MIC ATB combined with Example 7 @8 μgml” value (PAE UFR48; with Example 7 at 8 μg/ml)?
Its value is over 32 µg/mL.

What about the “MIC ATB combined with Example 9 @4 μg/ml” value (PAE UFR48; with Example 9 @4 μg/ml) of the same compound?
The value was over 32 µg/mL.

What about the “MIC ATB combined with Example 9 @4 μg/ml” value (PAE UFR48; with Example 9 at 4 μg/ml) of the same compound?
Its value is over 32 µg/mL.

And the “MIC ATB combined with Example 11 @8 μg/ml” value (PAE UFR48; with Example 11 at 8 μg/ml)?
Its value is over 32 µg/mL.

And the “MIC ATB combined with Example 12 @8 μg/ml” value (PAE UFR48; with Example 12 at 8 μg/ml)?
The value was over 32 µg/mL.

And the “MIC ATB combined with Example 13 @8 μg/ml” value (PAE UFR48; with Example 13 at 8 μg/ml)?
Its value is over 32 µg/mL.

What about the “MIC ATB combined with Example 14 @8 μg/ml” value (PAE UFR48; with Example 14 at 8 μg/ml) of the same compound?
The value was over 32 µg/mL.

And the “MIC ATB combined with Example 15 @4 μgml” value (PAE UFR48; with Example 15 at 4 μg/ml)?
The value was over 32 µg/mL.

And the “MIC ATB combined with Example 16 @4 μg/ml” value (PAE UFR48; with Example 16 at 4 μg/ml)?
Its value is over 32 µg/mL.

And the MIC (PAE UFR48; [1])?
The MIC was over 512 µg/mL.

What about the “MIC ATB combined with Example 1 @8 μg/ml” value (SPN 49619; with Example 1 @8 μg/ml) of the same compound?
The value was 1 µg/mL.

What about the “MIC ATB combined with Example 1 @8 μg/ml” value (SPN 49619; with Example 1 at 8 μg/ml) of the same compound?
Its value is 1 µg/mL.

What about the “MIC ATB combined with Example 7 @8 μgml” value (SPN 49619; with Example 7 at 8 μg/ml) of the same compound?
The value was 1 µg/mL.

And the “MIC ATB combined with Example 9 @4 μg/ml” value (SPN 49619; with Example 9 @4 μg/ml)?
Its value is 0.25 µg/mL.

And the “MIC ATB combined with Example 9 @4 μg/ml” value (SPN 49619; with Example 9 at 4 μg/ml)?
Its value is 0.25 µg/mL.

And the “MIC ATB combined with Example 11 @8 μg/ml” value (SPN 49619; with Example 11 at 8 μg/ml)?
The value was 0.25 µg/mL.

And the “MIC ATB combined with Example 12 @8 μg/ml” value (SPN 49619; with Example 12 at 8 μg/ml)?
Its value is under 0.031 µg/mL.

And the “MIC ATB combined with Example 13 @8 μg/ml” value (SPN 49619; with Example 13 at 8 μg/ml)?
Its value is 0.5 µg/mL.

What about the “MIC ATB combined with Example 14 @8 μg/ml” value (SPN 49619; with Example 14 at 8 μg/ml) of the same compound?
Its value is under 0.031 µg/mL.

What about the “MIC ATB combined with Example 15 @4 μgml” value (SPN 49619; with Example 15 at 4 μg/ml) of the same compound?
Its value is 0.25 µg/mL.

And the “MIC ATB combined with Example 16 @4 μg/ml” value (SPN 49619; with Example 16 at 4 μg/ml)?
The value was under 0.031 µg/mL.

And the MIC (SPN 49619; Streptococcus pneumoniae, antibiotic alone, read-out: MIC ATB alone)?
The MIC was 1 µg/mL.
